Holding throughout (type): biochemical
The target of test [1] is T1, full length active recombinant SYK enzyme (Homo sapiens, UniProt P43405).
T1 construct: full length active recombinant SYK enzyme (Millipore, CA); purchased Millipore
Kind of test: SYK tyrosine phosphorylation activity, LANCE TR-FRET kinase assay. The note with it: 1 nM SYK, 100 μM ATP, 1 hour at room temperature. The method, then:
Potency of candidate molecules for inhibiting Syk tyrosine phosphorylation activity is assessed by measuring the ability of a test compound to inhibit Syk-mediated tyrosine phosphorylation of a Syk-specific substrate.
SYK tyrosine phosphorylation activity is measured using the LANCE™ Technology developed by Perkin Elmer Life and Analytical Sciences (Boston, Mass.). LANCE™ refers to homogeneous time resolved fluorometry applications using techniques such as time-resolved fluorescence resonance energy transfer assay (TR-FRET) (see generally for procedures in Perkin Elmer Application Note—How to Optimize a Tyrosine Kinase Assay Using Time Resolved Fluorescence-Based LANCE Detection, wwww.perkinelmer.com/lifesciences). The assay principle involves detection of a phosphorylated substrate using energy transfer from a phosphospecific europium-labeled antibody to streptavidin-allophycocyanin as an acceptor.
To test the ability of candidate molecules to inhibit SYK tyrosine phosphorylation activity, molecules are reconstituted in 30% DMSO and serially diluted 1:3 with the final dilution containing DMSO in the absence of the candidate molecule. The final DMSO concentration in the assay is 3%. Kinase assays are performed as a two part reaction. The first reaction is a kinase reaction that comprises a candidate molecule, full length active recombinant SYK enzyme (Millipore, CA) and biotin-labeled SYK-specific substrate biotin-[…]-OH. The second reaction involves termination of the kinase reaction and the simultaneous addition of the detection reagents-europium-labeled anti-phosphotyrosine reagent (Eu-W1024-PY100, Perkin Elmer, Boston, Mass.) and Streptavidin-Allophycocyanin detection reagent (SA-APC, Prozyme, CA). The kinase reaction is performed in a black U-bottom 96-well microtitre plate. The final reaction volume is 50 μL and contains a final concentration of 1 nM active SYK enzyme, 550 nM SYK-substrate, and 100 μM ATP diluted in a buffer containing 50 mM Tris pH 7.5, 5 mM MgCl2, and 1 mM DTT. The reaction is allowed to proceed for 1 hour at room temperature. The stop buffer contains 100 mM Tris pH 7.5, 300 mM NaCl2, 20 mM EDTA, 0.02% Brij35, and 0.5% BSA. The detection reagents are added to the reaction mixture at the following dilutions—1:500 for Eu-W1024-PY100 and 1:250 for SA-APC. The kinase reaction is terminated by the addition of 50 μL stop buffer containing the detection reagents. The detection is allowed to proceed for 1 hr at room temperature. Detection of the phosphorolated substrate in the absence and presence of inhibitors is measured in the TR-FRET instrument, Analyst HT (Molecular Probes, Sunnyvale, Calif.) and the condition for measurements are set up using CriterionHost Release 2.0 (Molecular Probes, Sunnyvale, Calif.). The settings used are a follows: excitation 360 nm, emission 665-7.5 nm, beam splitter 350 nm 50/50, flash 100 pulses, delay 60 us, integration 400 us, z-height 2 mm. Inhibition of SYK-tyrosine kinase activity is calculated as the maximum response observed in the presence of inhibitor, compared to that in the absence of inhibitor. IC50s are derived by non-linear regression analysis.
On the technique in general: TR-FRET usually uses a lanthanide donor and a delayed reading to cut background.

A further test addresses T2, JAK1 (Homo sapiens, UniProt P23458).
T2 construct: 5 μl of catalytic domain recombinant Kinase enzyme+Tyr peptide substrate (Invitrogen, CA); purchased Invitrogen
Kind of test: JAK tyrosine phosphorylation activity, Z'-LYTE FRET kinase assay. The note with it: catalytic domain recombinant kinase, Tyr6 peptide. As to the method:
(§1) JAK and SYK tyrosine phosphorylation activity is measured using the Z'-LYTE™ Technology developed by Invitrogen Corporation (Carlsbad, Calif.). For JAK1, JAK2 and JAK3 the Z'-LYTE™ Kinase Assay Kit-Tyr6 Peptide (part number PV4122) was used. The Z'-LYTE™ biochemical assay employs a fluorescence resonance energy transfer (FRET) coupled-enzyme format and is based on the differential sensitivity of phosphorylated and non-phosphorylated peptides to proteolitic cleavage. The assay uses a synthetic peptide substrate that is labelled with a donor fluorophore (coumarin) and an acceptor fluorophore (fluorescein) that make up a FRET pair. In the primary reaction (the Kinase Reaction), the kinase transfers the γ-phosphate of ATP to a single tyrosine residue on the substrate, while the presence of a kinase inhibitor in the primary reaction suppresses phosphorylation. In the secondary reaction (the Development Reaction), a site-specific protease (the Development Reagent) is added. The development buffer quenches the Kinase Reaction, while the protease recognizes and cleaves non-phosphorylated Z'-LYTE™ peptide substrate. Cleavage disrupts FRET between the donor and acceptor fluorophores on the non-phosphorylated substrate, while uncleaved, phosphorylated substrate maintains FRET.
(§2) To test the ability of candidate molecules to inhibit JAK tyrosine phosphorylation activity, molecules are reconstituted in 100% DMSO and serially diluted 1:10 in polypropylene v-bottom microtiter plates. The candidate molecules are then diluted 1:25 into kinase buffer and 2.5 μl transferred into duplicate wells of a 384 well low volume black microtiter assay plate (Corning, USA). The final DMSO concentration in the assay is 1%. The kinase reaction contains 2.5 μl of a candidate molecule, 5 μl of catalytic domain recombinant Kinase enzyme+Tyr peptide substrate (Invitrogen, CA) and 2.5 μl ATP (Invitrogen, CA). The kinase reaction is allowed to precede for 1 hour at room temperature. The protease reaction is initiated by the addition of 5 μl Development Reagent (Invitrogen, CA). After 1 hour incubation at room temperature the fluorescence is measured using a FlexStation plate reader (Molecular Devices, Sunnyvale, Calif.). The reader settings used are as follows: Fluorescence mode, endpoint, top read, excitation 400 nm, emission 445 nm and 520 nm. Auto Cutoff 435 nm and 515 nm, PMT sensitivity high, 6 reads per well. Inhibition of JAK activity is calculated as the percent phosphorylation of substrate in the presence of inhibitor compared to the percent phosphorylation of substrate in the absence of inhibitor. IC50's were derived using Xlfit 4.3 (IDBS, UK), 4 parameter logistic model 205: Y=(A+((B−A)/(1+((C/x)^D)))).

A further test has as its target T3, JAK2 (Homo sapiens, UniProt O60674).
T3 construct: 5 μl of catalytic domain recombinant Kinase enzyme+Tyr peptide substrate (Invitrogen, CA); purchased Invitrogen
The description is as above. The following applies: catalytic domain recombinant kinase, Tyr6 peptide. As to the method:
as §1, §2

In the next test the target is T4, JAK3 (Homo sapiens, UniProt P52333).
T4 construct: 5 μl of catalytic domain recombinant Kinase enzyme+Tyr peptide substrate (Invitrogen, CA); purchased Invitrogen
Described as above. The following applies: catalytic domain recombinant kinase, Tyr6 peptide. As to the method: as §1, §2

T2 sequence (P23458 875-1153 limits assumed): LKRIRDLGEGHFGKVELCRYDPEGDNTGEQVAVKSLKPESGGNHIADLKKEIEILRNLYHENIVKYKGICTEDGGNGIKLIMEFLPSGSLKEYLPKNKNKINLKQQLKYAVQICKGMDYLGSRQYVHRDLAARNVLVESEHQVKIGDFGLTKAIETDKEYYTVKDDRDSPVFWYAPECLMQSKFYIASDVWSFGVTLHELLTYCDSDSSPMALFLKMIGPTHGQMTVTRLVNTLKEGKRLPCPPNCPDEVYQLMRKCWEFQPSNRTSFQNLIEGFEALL
T4 sequence (P52333 822-1111 limits assumed): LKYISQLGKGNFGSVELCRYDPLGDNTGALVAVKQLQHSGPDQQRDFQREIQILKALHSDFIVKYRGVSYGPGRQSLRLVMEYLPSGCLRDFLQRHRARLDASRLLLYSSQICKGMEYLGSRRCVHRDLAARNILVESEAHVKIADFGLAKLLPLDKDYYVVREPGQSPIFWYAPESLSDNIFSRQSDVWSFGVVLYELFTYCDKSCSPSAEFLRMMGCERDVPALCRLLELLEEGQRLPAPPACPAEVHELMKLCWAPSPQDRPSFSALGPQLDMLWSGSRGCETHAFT
T3 sequence (O60674 849-1124 limits assumed): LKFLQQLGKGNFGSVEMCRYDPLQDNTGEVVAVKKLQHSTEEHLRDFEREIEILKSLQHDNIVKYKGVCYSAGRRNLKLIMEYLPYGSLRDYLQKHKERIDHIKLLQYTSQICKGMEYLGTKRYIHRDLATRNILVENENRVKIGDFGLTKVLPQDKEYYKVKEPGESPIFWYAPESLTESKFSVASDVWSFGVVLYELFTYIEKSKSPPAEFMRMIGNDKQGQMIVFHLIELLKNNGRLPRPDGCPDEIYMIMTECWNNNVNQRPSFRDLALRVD

On to `CCS(=O)(=O)N1CCC(c2ccc(Nc3ncc(C(N)=O)c(NC4CC4)n3)cc2)CC1` [Compound 1, 4-(cyclopropylamino)-2-((4-(1-(ethylsulfonyl)piperidin-4-yl)phenyl)amino)pyrimidine-5-carboxamide], for which the IC50 result in test [1] is “+++ (0.10 uM<IC50<0.01 uM)”. Further, the “JAK1 IC50 potency class” value on JAK1 was “+++ (0.10 uM<IC50<0.01 uM)”. Further, at JAK2, the “JAK2 IC50 potency class” value is given as “++++ (0.01 uM<IC50<0.001 uM)”. For the same molecule, the “JAK3 IC50 potency class” value at JAK3 was “++++ (0.01 uM<IC50<0.001 uM)”.
Consider `NC(=O)c1cnc(Nc2ccc(C3CCN(S(=O)(=O)C4CC4)CC3)cc2)nc1NC1CC1` [Compound 2, 4-(cyclopropylamino)-2-((4-(1-(cyclopropylsulfonyl)piperidin-4-yl)phenyl)amino)pyrimidine-5-carboxamide], for which the IC50 entry in test [1] is recorded as “+++ (0.10 uM<IC50<0.01 uM)”. Besides, at JAK1, the “JAK1 IC50 potency class” value is listed as “+++ (0.10 uM<IC50<0.01 uM)”. For the same molecule, on JAK2, the “JAK2 IC50 potency class” value is on record as “++++ (0.01 uM<IC50<0.001 uM)”. In addition, the “JAK3 IC50 potency class” value on JAK3 is “++++ (0.01 uM<IC50<0.001 uM)”.
In the case of `CC(C)S(=O)(=O)N1CCC(c2ccc(Nc3ncc(C(N)=O)c(NC4CC4)n3)cc2)CC1` [Compound 3, 4-(cyclopropylamino)-2-((4-(1-(isopropylsulfonyl)piperidin-4-yl)phenyl)amino)pyrimidine-5-carboxamide], in test [1], the IC50 result is recorded as “+++ (0.10 uM<IC50<0.01 uM)”. In addition, the “JAK1 IC50 potency class” value at JAK1 is given as “+++ (0.10 uM<IC50<0.01 uM)”. For the same molecule, at JAK2, the “JAK2 IC50 potency class” value is reported as “++++ (0.01 uM<IC50<0.001 uM)”. Besides, at JAK3, the “JAK3 IC50 potency class” value is reported as “++++ (0.01 uM<IC50<0.001 uM)”.
As to `CC(C)N1CCC(c2ccc(Nc3ncc(C(N)=O)c(NC4CC4)n3)cc2)CC1` [Compound 4, 4-(cyclopropylamino)-2-((4-(1-isopropylpiperidin-4-yl)phenyl)amino)pyrimidine-5-carboxamide], in test [1], the IC50 entry is “+++ (0.10 uM<IC50<0.01 uM)”. Also, the “JAK1 IC50 potency class” value on JAK1 is reported as “+++ (0.10 uM<IC50<0.01 uM)”. Besides, on JAK2, the “JAK2 IC50 potency class” value is on record as “+++ (0.10 uM<IC50<0.01 uM)”. For the same molecule, the “JAK3 IC50 potency class” value at JAK3 is given as “++++ (0.01 uM<IC50<0.001 uM)”.
Regarding `CN(C)C(=O)N1CCC(c2ccc(Nc3ncc(C(N)=O)c(NC4CC4)n3)cc2)CC1` [Compound 5, 4-(cyclopropylamino)-2-((4-(1-(dimethylcarbamoyl)piperidin-4-yl)phenyl)amino)pyrimidine-5-carboxamide], in test [1], the IC50 entry was “+++ (0.10 uM<IC50<0.01 uM)”. Also, the “JAK1 IC50 potency class” value on JAK1 is given as “+++ (0.10 uM<IC50<0.01 uM)”. Further, the “JAK2 IC50 potency class” value on JAK2 is given as “++++ (0.01 uM<IC50<0.001 uM)”. For the same molecule, the “JAK3 IC50 potency class” value at JAK3 is given as “++++ (0.01 uM<IC50<0.001 uM)”.
For `NC(=O)c1cnc(Nc2ccc(C3CCN(C(=O)N4CCOCC4)CC3)cc2)nc1NC1CC1` [Compound 6, 4-(cyclopropylamino)-2-((4-(1-(morpholine-4-carbonyl)piperidin-4-yl)phenyl)amino)pyrimidine-5-carboxamide], in test [1], the IC50 entry is reported as “+++ (0.10 uM<IC50<0.01 uM)”. Also, the “JAK1 IC50 potency class” value at JAK1 is reported as “+++ (0.10 uM<IC50<0.01 uM)”. Besides, the “JAK2 IC50 potency class” value at JAK2 was “++++ (0.01 uM<IC50<0.001 uM)”. For the same molecule, on JAK3, the “JAK3 IC50 potency class” value was “++++ (0.01 uM<IC50<0.001 uM)”.
Consider `CCC(=O)N1CCC(c2ccc(Nc3ncc(C(N)=O)c(NC4CC4)n3)cc2)CC1` [Compound 7, 4-(cyclopropylamino)-2-((4-(1-propionylpiperidin-4-yl)phenyl)amino)pyrimidine-5-carboxamide], for which, in test [1], the IC50 entry is on record as “+++ (0.10 uM<IC50<0.01 uM)”. In addition, the “JAK1 IC50 potency class” value on JAK1 is recorded as “+++ (0.10 uM<IC50<0.01 uM)”. Moreover, the “JAK2 IC50 potency class” value at JAK2 is recorded as “++++ (0.01 uM<IC50<0.001 uM)”. For the same molecule, at JAK3, the “JAK3 IC50 potency class” value is recorded as “++++ (0.01 uM<IC50<0.001 uM)”.
As for `CC(=O)N1CC(c2ccc(Nc3ncc(C(N)=O)c(NC4CC4)n3)cc2)C1` [Compound 71, 2-(4-(1-acetylazetidin-3-yl)phenylamino)-4-(cyclopropylamino)pyrimidine-5-carboxamide], the IC50 result in test [1] is given as “+++ (0.10 uM<IC50<0.01 uM)”.
Same read-out and setting: in the case of `COCC(=O)N1CC(c2ccc(Nc3ncc(C(N)=O)c(NC4CC4)n3)cc2)C1` [Compound 72, 4-(cyclopropylamino)-2-(4-(1-(2-methoxyacetyl)azetidin-3-yl)phenylamino)pyrimidine-5-carboxamide] it was “+++ (0.10 uM<IC50<0.01 uM)”; in that of `CS(=O)(=O)N1CC(c2ccc(Nc3ncc(C(N)=O)c(NC4CC4)n3)cc2)C1` [Compound 73, 4-(cyclopropylamino)-2-(4-(1-(methylsulfonyl)azetidin-3-yl)phenylamino)pyrimidine-5-carboxamide], “+++ (0.10 uM<IC50<0.01 uM)”; in that of `CN(C)S(=O)(=O)N1CC(c2ccc(Nc3ncc(C(N)=O)c(NC4CC4)n3)cc2)C1` [Compound 74, 4-(cyclopropylamino)-2-(4-(1-(N,N-dimethylsulfamoyl)azetidin-3-yl)phenylamino)pyrimidine-5-carboxamide], “+++ (0.10 uM<IC50<0.01 uM)”.
Turning to `CCS(=O)(=O)N1CC(c2ccc(Nc3ncc(C(N)=O)c(NC4CC4)n3)cc2)C1` [Compound 75, 4-(cyclopropylamino)-2-(4-(1-(ethylsulfonyl)azetidin-3-yl)phenylamino)pyrimidine-5-carboxamide], the IC50 result in test [1] is recorded as “+++ (0.10 uM<IC50<0.01 uM)”.
In the case of `CN(C)C(=O)C1CN(c2ccc(Nc3ncc(C(N)=O)c(NC4CC4)n3)cc2)C1` [Compound 76, 4-(cyclopropylamino)-2-(4-(3-(dimethylcarbamoyl)azetidin-1-yl)phenylamino)pyrimidine-5-carboxamide], in test [1], the IC50 entry was “++ (1.0 uM<IC50<0.10 uM)”.
With `CN(C)C(=O)C1CN(c2ccc(Nc3ncc(C(N)=O)c(NC4CC4)n3)cc2F)C1` [Compound 77, 4-(cyclopropylamino)-2-(4-(3-(dimethylcarbamoyl)azetidin-1-yl)-3-fluorophenylamino)pyrimidine-5-carboxamide], in test [1], the IC50 entry is on record as “++ (1.0 uM<IC50<0.10 uM)”.

The values above are taken from US9676756B2 (PORTOLA PHARMACEUTICALS, INC., priority 2012, dated 2017).
